# Data published in patent US8916702B2 (priority 2012, dated 2014).
# Tested on: HCV pseudoparticles (genotype 1a HCV E1 and E2 envelope, H77C isolate)
# Test: microbe, parasite or virus in culture
# Format: cell-based
# Conditions: Hepatitis C virus, Huh-7, 48 h, HCV pseudoparticle infection of Huh7 cells, luciferase 2 days after infection; average of duplicates
row,Compound,EC50
1,COC(=O)[C@H](CNC(=O)C(=O)Nc1ccc(OC)cc1)NC(=O)c1ccc(Nc2nc(NC3(c4ccc(Cl)cc4)CC3)nc(OCC(F)(F)F)n2)cc1 [Compound 1254],0.37 nM
2,Cn1cncc1NC(=O)C(=O)NCC[C@H](NC(=O)c1ccc(Nc2nc(NC3(c4ccc(Cl)cc4)CC3)nc(OCC(F)(F)F)n2)cc1)C(=O)O [Compound 1267],5.26 nM
3,Cc1ccc(-c2ccc(NC(=O)C(=O)NCC(C)(C)CNC(=O)c3ccc(Nc4nc(NC5(c6ccc(Cl)cc6)CC5)nc(OCC(F)(F)F)n4)cc3)cc2)cc1 [Compound 1565],0.13 nM
4,O=C(Nc1ccc(C(=O)O)cc1)C(=O)NC1CCCC1CNC(=O)c1ccc(Nc2nc(NC3(c4ccc(Cl)cc4)CC3)nc(OCC(F)(F)F)n2)cc1 (stereo not drawn) [Compound 1464],0.48 nM

# Same assay, conditions: Hepatitis C virus, Huh-7, 48 h, HCV pseudoparticles (genotype 1a, H77C) in Huh7 cells; average of duplicate; luciferase 2 days after infection
row,Compound,EC50
1,C=Cc1ccc(NC(=O)C(=O)NCC(C)(C)CNC(=O)c2ccc(Nc3nc(NC4(c5ccc(Cl)cc5)CC4)nc(OCC(F)(F)F)n3)cc2F)cc1 [Compound 3515],0.017 nM
2,Cc1ccc(NC(=O)C(=O)N(CCO)CCCNC(=O)c2ccc(Nc3nc(NC4(c5ccc(Cl)cc5)CC4)nc(OCC(F)(F)F)n3)cc2)cc1O [Compound 3506],0.51 nM
3,CC(C)(CNC(=O)C(=O)Nc1cccc(C(=N)N)c1)CNC(=O)c1ccc(Nc2nc(NC3(c4ccc(Cl)cc4)CC3)nc(OCC(F)(F)F)n2)cc1 [Compound 3041],0.068 nM
4,COC(=O)[C@H](CNC(=O)C(=O)Nc1ccc(-c2cc[nH]n2)cc1)NC(=O)c1ccc(Nc2nc(NC3(c4ccc(Cl)cc4)CC3)nc(OCC(F)(F)F)n2)cc1 [Compound 3193],1.03 nM

# Same assay, conditions: Hepatitis C virus, Huh-7, 48 h, HCV pseudoparticles, Huh7 cells, luciferase 2 days after infection; average of duplicates
row,Compound,EC50
1,CCc1cccc(NC(=O)C(=O)NC[C@H](NC(=O)c2ccc(Nc3nc(NC4(c5ccc(Cl)cc5)CC4)nc(OCC(F)(F)F)n3)cc2)C(=O)OC)c1 [Compound 3688],0.97 nM

# Same assay, conditions: Hepatitis C virus, Huh-7, 48 h, read-out: Activity (EC50 class), HCV pseudoparticle infection of Huh7 cells, luciferase 2 days after infection; EC50 expressed as class A/B
row,Compound,EC50
1,CC(C)(C)OC(=O)N1CCCC(CNC(=O)C(=O)NCC[C@H](NC(=O)c2ccc(Nc3nc(NC4(c5ccc(Cl)cc5)CC4)nc(OCC(F)(F)F)n3)cc2)C(=O)O)C1 (stereo partly drawn) [Compound 1204],0.01 to 10 nM
2,O=C(NCc1cccc(F)c1)C(=O)NC[C@H](NC(=O)c1ccc(Nc2nc(NC3(c4ccc(Cl)cc4)CC3)nc(OCC(F)(F)F)n2)cc1)C(=O)O [Compound 1163],0.01 to 10 nM
3,COC(=O)[C@H](CCNC(=O)C(=O)Nc1ccc(F)cc1)NC(=O)c1ccc(Nc2nc(NC3(c4ccc(Cl)cc4)CC3)nc(OCC(F)(F)F)n2)cc1 [Compound 1230],0.01 to 10 nM
4,O=C(NCC[C@H](NC(=O)c1ccc(Nc2nc(NC3(c4ccc(Cl)cc4)CC3)nc(OCC(F)(F)F)n2)cc1)C(=O)O)C(=O)Nc1cc[nH]n1 [Compound 1265],0.01 to 10 nM
5,CN(C)c1ccc(NC(=O)C(=O)NCC(C)(C)CNC(=O)c2ccc(Nc3nc(NC4(c5ccc(Cl)cc5)CC4)nc(OCC(F)(F)F)n3)cc2)cc1 [Compound 1602],0.01 to 10 nM
6,O=C(NCC[C@H](NC(=O)c1ccc(Nc2nc(NC3(c4ccc(Cl)cc4)CC3)nc(OCC(F)(F)F)n2)cc1)C(=O)O)C(=O)NCc1cccc(F)c1F [Compound 1177],0.01 to 10 nM
7,CC(C)(CNC(=O)C(=O)Nc1ccc(-c2csnn2)cc1)CNC(=O)c1ccc(Nc2nc(NC3(c4ccc(Cl)cc4)CC3)nc(OCC(F)(F)F)n2)cc1 [Compound 1598],0.01 to 10 nM
8,CN(C(=O)C(=O)NCC[C@H](NC(=O)c1ccc(Nc2nc(NC3(c4ccc(Cl)cc4)CC3)nc(OCC(F)(F)F)n2)cc1)C(=O)O)c1ccccc1 [Compound 1277],0.01 to 10 nM
9,O=C(NCC1(CNC(=O)c2ccc(Nc3nc(NC4(c5ccc(Cl)cc5)CC4)nc(OCC(F)(F)F)n3)cc2)CC1)C(=O)Nc1ccc(F)cc1 [Compound 1566],0.01 to 10 nM
10,COC(=O)[C@H](CCNC(=O)C(=O)Nc1cc(F)c(F)cc1F)NC(=O)c1ccc(Nc2nc(NC3(c4ccc(Cl)cc4)CC3)nc(OCC(F)(F)F)n2)cc1 [Compound 1510],0.01 to 10 nM
11,COC(=O)[C@H](CCNC(=O)C(=O)NC1CCCCC1O)NC(=O)c1ccc(Nc2nc(NC3(c4ccc(Cl)cc4)CC3)nc(OCC(F)(F)F)n2)cc1 (stereo partly drawn) [Compound 1098],0.01 to 10 nM
12,COCC(NC(=O)C(=O)NCC[C@H](NC(=O)c1ccc(Nc2nc(NC3(c4ccc(Cl)cc4)CC3)nc(OCC(F)(F)F)n2)cc1)C(=O)OC)C1CC1 (stereo partly drawn) [Compound 1371],0.01 to 10 nM
13,COC(=O)[C@@H](CCNC(=O)C(=O)NCC1(COc2ccccc2)CC1)NC(=O)c1ccc(Nc2nc(NC3(c4ccc(Cl)cc4)CC3)nc(OCC(F)(F)F)n2)cc1 [Compound 1387],0.01 to 10 nM
14,CCOC(=O)[C@H](CCNC(=O)C(=O)NCC1CC1)NC(=O)c1ccc(Nc2nc(NC3(c4ccc(Cl)cc4)CC3)nc(OCC(F)(F)F)n2)cc1 [Compound 1369],0.01 to 10 nM
15,COC(=O)[C@H](CNC(=O)C(=O)Nc1ccc(OC)cc1)NC(=O)c1ccc(Nc2nc(NC3(c4ccc(Cl)cc4)CC3)nc(OCC(F)(F)F)n2)cc1 [Compound 1254],0.01 to 10 nM
16,CC(C)(CNC(=O)C(=O)Nc1ccc(C(=O)N2CCCCC2)cc1)CNC(=O)c1ccc(Nc2nc(NC3(c4ccc(Cl)cc4)CC3)nc(OCC(F)(F)F)n2)cc1 [Compound 1568],0.01 to 10 nM
17,Cn1cncc1NC(=O)C(=O)NCC[C@H](NC(=O)c1ccc(Nc2nc(NC3(c4ccc(Cl)cc4)CC3)nc(OCC(F)(F)F)n2)cc1)C(=O)O [Compound 1267],0.01 to 10 nM
18,Cc1ccc(-c2ccc(NC(=O)C(=O)NCC(C)(C)CNC(=O)c3ccc(Nc4nc(NC5(c6ccc(Cl)cc6)CC5)nc(OCC(F)(F)F)n4)cc3)cc2)cc1 [Compound 1565],0.01 to 10 nM
19,COC(=O)[C@H](CCNC(=O)C(=O)Nc1ccnc(OC)c1)NC(=O)c1ccc(Nc2nc(NC3(c4ccc(Cl)cc4)CC3)nc(OCC(F)(F)F)n2)cc1 [Compound 1217],0.01 to 10 nM
20,O=C(Nc1ccc(C(=O)O)cc1)C(=O)NC1CCCC1CNC(=O)c1ccc(Nc2nc(NC3(c4ccc(Cl)cc4)CC3)nc(OCC(F)(F)F)n2)cc1 (stereo not drawn) [Compound 1464],0.01 to 10 nM
21,COC(=O)[C@@H](CCNC(=O)C(=O)Nc1ccc(-c2noc(C)n2)cc1)NC(=O)c1ccc(Nc2nc(NC3(c4ccc(Cl)cc4)CC3)nc(OCC(F)(F)F)n2)cc1 [Compound 1529],0.01 to 10 nM
22,COC(=O)[C@H](CNC(=O)C(=O)NCc1ccc(OC)c(OC)c1)NC(=O)c1ccc(Nc2nc(NC3(c4ccc(Cl)cc4)CC3)nc(OCC(F)(F)F)n2)cc1 [Compound 1152],0.01 to 10 nM

# Same assay, conditions: Hepatitis C virus, Huh-7, 48 h, read-out: Activity (EC50 class), HCV pseudoparticles, Huh7 cells, luciferase 2 days after infection; average of duplicates
row,Compound,EC50
1,COC(=O)[C@H](CCNC(=O)C(=O)Nc1cccc(-n2cnnc2)c1)NC(=O)c1ccc(Nc2nc(NC3(c4ccc(Cl)cc4)CC3)nc(OCC(F)(F)F)n2)cc1 [Compound 3605],0.01 to 10 nM
2,O=C(NC[C@H](NC(=O)c1ccc(Nc2nc(NC3(c4ccc(Cl)cc4)CC3)nc(OCC(F)(F)F)n2)cc1)C(=O)Cl)C(=O)Nc1cccc(-n2cnnc2)c1 [Compound 3784],0.01 to 10 nM
3,CCc1cccc(NC(=O)C(=O)NC[C@H](NC(=O)c2ccc(Nc3nc(NC4(c5ccc(Cl)cc5)CC4)nc(OCC(F)(F)F)n3)cc2)C(=O)OC)c1 [Compound 3688],0.01 to 10 nM
4,NC(=O)c1cccc(NC(=O)C(=O)NC[C@H](NC(=O)c2ccc(Nc3nc(NC4(c5ccc(Cl)cc5)CC4)nc(OCC(F)(F)F)n3)cc2)C(=O)Cl)c1 [Compound 3745],0.01 to 10 nM
5,COC(=O)[C@H](CNC(=O)C(=O)Nc1ccc(Cl)nc1)NC(=O)c1ccc(Nc2nc(NC3(c4ccc(Cl)cc4)CC3)nc(OCC(F)(F)F)n2)cc1 [Compound 3683],0.01 to 10 nM
6,O=C(NCC[C@H](NC(=O)c1ccc(Nc2nc(NC3(c4ccc(Cl)cc4)CC3)nc(OCC(F)(F)F)n2)cc1)C(=O)O)C(=O)Nc1ccc(Cl)nc1 [Compound 3611],0.01 to 10 nM

# Same assay, conditions: Hepatitis C virus, Huh-7, read-out: Activity (EC50 class), HCV pseudoparticles (genotype 1a, H77C) in Huh7 cells; EC50 expressed as class A/B
row,Compound,EC50
1,COc1cc(F)ccc1NC(=O)C(=O)NCC(C)(C)CNC(=O)c1ccc(Nc2nc(NC3(c4ccc(Cl)cc4)CC3)nc(OCC(F)(F)F)n2)cc1 [Compound 3075],0.01 to 10 nM
2,NS(=O)(=O)c1ccc(NC(=O)C(=O)NC/C(=N/C(=O)c2ccc(Nc3nc(NC4(c5ccc(Cl)cc5)CC4)nc(OCC(F)(F)F)n3)cc2)C(=O)O)cc1 [Compound 3155],0.01 to 10 nM
3,C=Cc1ccc(NC(=O)C(=O)NCC(C)(C)CNC(=O)c2ccc(Nc3nc(NC4(c5ccc(Cl)cc5)CC4)nc(OCC(F)(F)F)n3)cc2F)cc1 [Compound 3515],0.01 to 10 nM
4,COc1ccc(C2(Nc3nc(Nc4ccc(C(=O)NCC(C)(C)CNC(=O)C(N)=O)cc4)nc(OCC(F)(F)F)n3)CC2)cc1Cl [Compound 3333],0.01 to 10 nM
5,CN(CCCN(C)C(=O)c1ccc(Nc2nc(NC3(c4ccc(Cl)cc4)CC3)nc(OCC(F)(F)F)n2)cc1)C(=O)C(=O)N1CCc2ccccc2C1 [Compound 3433],10 to 1000 nM
6,O=C(NCCCCNC(=O)c1ccc(Nc2nc(NC3(c4ccc(Cl)cc4)CC3)nc(OCC(F)(F)F)n2)cc1)C(=O)Nc1nccs1 [Compound 3399],0.01 to 10 nM
7,COC(=O)[C@H](CNC(=O)C(=O)Nc1ccc(Cn2cccn2)cc1)NC(=O)c1ccc(Nc2nc(NC3(c4ccc(Cl)cc4)CC3)nc(OCC(F)(F)F)n2)cc1 [Compound 3195],0.01 to 10 nM
8,CC(C)(CNC(=O)C(=O)Nc1ccccn1)CNC(=O)c1ccc(Nc2nc(NC3(c4ccc(Cl)cc4)CC3)nc(OCC(F)(F)F)n2)cc1 [Compound 3248],0.01 to 10 nM
9,CC(C)(CNC(=O)C(=O)Nc1ccc2[nH]ccc2c1)CNC(=O)c1ccc(Nc2nc(NC3(c4ccc(Cl)cc4)CC3)nc(OCC(F)(F)F)n2)cc1 [Compound 3338],0.01 to 10 nM
10,COc1ccc(NC(=O)C(=O)NCC(C)(C)CNC(=O)c2ccc(Nc3nc(NC4(c5ccc(Cl)cc5)CC4)nc(OCC(F)(F)F)n3)cc2)cc1F [Compound 3072],0.01 to 10 nM
11,O=C(NC/C(=N/C(=O)c1ccc(Nc2nc(NC3(c4ccc(Cl)cc4)CC3)nc(OCC(F)(F)F)n2)cc1)C(=O)O)C(=O)Nc1ccc(Cl)cc1 [Compound 3149],0.01 to 10 nM
12,Cc1ccc(NC(=O)C(=O)N(CCO)CCCNC(=O)c2ccc(Nc3nc(NC4(c5ccc(Cl)cc5)CC4)nc(OCC(F)(F)F)n3)cc2)cc1O [Compound 3506],0.01 to 10 nM
13,COC(=O)[C@@H](CCNC(=O)C(=O)Nc1cccc(-c2cnco2)c1)NC(=O)c1ccc(Nc2nc(NC3(c4ccc(Cl)cc4)CC3)nc(OCC(F)(F)F)n2)cc1 [Compound 3579],0.01 to 10 nM
14,CC(C)(CNC(=O)c1ccc(Nc2nc(NC3(c4ccc(Cl)cc4)CC3)nc(OCC(F)(F)F)n2)cc1)NC(=O)C(=O)N1CCCCC1 [Compound 3439],0.01 to 10 nM
15,CC(C)(CNC(=O)C(=O)Nc1cccc(C(=N)N)c1)CNC(=O)c1ccc(Nc2nc(NC3(c4ccc(Cl)cc4)CC3)nc(OCC(F)(F)F)n2)cc1 [Compound 3041],0.01 to 10 nM
16,CC(C)(CNC(=O)C(=O)NCc1ccc(F)cc1)CNC(=O)c1ccc(Nc2nc(NC3(c4ccc(Cl)cc4)CC3)nc(OCC(F)(F)F)n2)cc1F [Compound 3514],0.01 to 10 nM
17,COC(=O)[C@H](CNC(=O)C(=O)Nc1ccc(-c2cc[nH]n2)cc1)NC(=O)c1ccc(Nc2nc(NC3(c4ccc(Cl)cc4)CC3)nc(OCC(F)(F)F)n2)cc1 [Compound 3193],0.01 to 10 nM
18,O=C(Nc1ccccc1)C(=O)N[C@H](CCNC(=O)c1ccc(Nc2nc(NC3(c4ccc(Cl)cc4)CC3)nc(OCC(F)(F)F)n2)cc1)C(=O)O [Compound 3494],0.01 to 10 nM
19,CC(C)(CNC(=O)C(=O)Nc1ccccc1-n1cnnn1)CNC(=O)c1ccc(Nc2nc(NC3(c4ccc(Cl)cc4)CC3)nc(OCC(F)(F)F)n2)cc1 [Compound 3046],0.01 to 10 nM
20,CC(C)(CNC(=O)C(=O)Nc1ccncc1)CNC(=O)c1ccc(Nc2nc(NC3(c4ccc(Cl)cc4)CC3)nc(OCC(F)(F)F)n2)cc1 [Compound 3241],0.01 to 10 nM
